Here are results for 15 compounds from PubChem BioAssay (NCI).

Holding throughout (test): inhibition of tumour cell growth, NCI panel, 48 h
Experiment [1] has as its system 786-0 renal.
The subject of experiment [2] is CCRF-CEM leukemia.
Experiment [3] deals with DU-145 prostate.
The subject of experiment [4] is HL-60(TB) leukemia.
The subject of experiment [5] is MALME-3M melanoma.
Experiment [6] deals with MOLT-4 leukemia.
For experiment [7], the system named is SK-MEL-28 melanoma.
Experiment [8] relates to SW-620 colon.
The test system of experiment [9] is T-47D breast.
Experiment [10] has as its system SR leukemia.

SMILES strings stand for the structures. Values joined by “and” are separate entries in the source; they are usually repeats but may differ in a detail not shown here. Equal entries are not always repeated.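 1) Cells in 96-well plates. 2) Compound, 48 h, 5 concentrations. 3) Linear interpolation between surrounding doses. 4) Unreached endpoint = highest concentration. At the GI50, growth is halved. TGI marks complete inhibition of growth.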 *1 amine or outer side, *2 acyl side, *3 side chain or, on linkers, in order; H or OH if unused. Where a SMILES comes first, the peptide text is derived from it. Bridges are numbered along the chain shown (N, C = ends). [ ]: non-standard residue; d: D form. ξ: configuration not given here. X4 = CCC(C)C(N[*:1])C(O)CC(=O)O[C@H](C(=O)C(C)C(=O)[*:2])C(C)C; NMeY = CN[C@@H](Cc1ccc(O)cc1)C(=O)O; ξNMeL = CNC(CC(C)C)C(=O)O; ξT = CC(O)C(N)C(=O)O

As for `Cc1[nH]c(-c2ccccc2)c(-c2ccc(Cl)cc2)c1C(=O)ONC(=O)c1ccccc1`, the TGI is 4.46 µM in experiment [1]; above 21.8 µM in [2]; 3.76 µM in experiment [3]; 3.29 µM in [4]; 23.5 µM in experiment [5]; 6.97 µM in experiment [6]. The results for the TGI in experiment [7], in [8] and in experiment [9] were 24.9 µM, 31.7 µM and 18.1 µM, respectively.
For the compound `O=C1NC(N/N=C\c2ccccc2)=N/C1=C/c1ccc(Cl)cc1`, the TGI in experiment [1] is above 100 µM; in experiment [3], above 100 µM; in experiment [5], 62.1 µM; in [6], 33.9 µM; in experiment [7] it was above 100 µM; in experiment [10], 40.1 µM. The TGI in experiment [8] and in experiment [9] was above 100 µM throughout.
For `COC(=O)C(C)Sc1nc2cc(Cl)ccc2s1` (centres undefined), the TGI in [1], in experiment [2], in experiment [3], in experiment [5], in experiment [6] and in experiment [7] was above 100 µM throughout. In addition, the TGI in experiment [8] and in experiment [9] was above 100 µM throughout.
Take `OCCN=C1Nc2ccc(Cl)cc2C(=S)N2CSC[C@@H]12`: the TGI in [1], in experiment [3], in [5], in experiment [6], in [7] and in experiment [10] was above 100 µM in each case. Moreover, the TGI in experiment [8] and in [9] was above 100 µM throughout.
For the compound `O=C(O)c1ccc(Nc2nc3cc(C(F)(F)F)ccc3nc2C(=O)O)cc1`, the TGI in [1], in experiment [3], in experiment [4], in [5], in experiment [6] and in experiment [7] was above 100 µM each time. Also, the TGI in [10] and in [8] was above 100 µM each time.
On to `CCC(C)C1NC(=O)C(NC(=O)C(CC(C)C)N(C)C(=O)[C@@H]2CCCN2)C(C)OC(=O)[C@H](Cc2ccc(OC)cc2)N(C)C(=O)[C@@H]2CCCN2C(=O)[C@H](CC(C)C)NC(=O)C(C)C(=O)[C@H](C(C)C)OC(=O)CC1O` (some centres undefined) (H-P[ξNMeL][ξT][X4]LP[NMeY](Me); ester 3-C), for which the TGI was 0.0115 µM and 0.0174 µM in experiment [1]; 0.0557 µM in experiment [2]; 0.0279 µM and 0.0213 µM in [4]; 0.00847 µM in [5]; 0.00507 µM in experiment [6]; 0.00179 µM in [7]. For the same compound, the TGI was 7.45 µM in experiment [10]; 0.0802 µM and 0.0232 µM in experiment [8].
With `COC(OC)C(O)C1OC=CC1n1cnc2c(N)ncnc21` (centres undefined), the TGI in experiment [1], in [2], in experiment [3], in [6], in experiment [7] and in experiment [10] was above 100 µM in each case. For the same compound, the TGI in experiment [8] and in [9] was above 100 µM in each case.
For `C/C=C/[C@H]1O[C@@](OC)([C@@H](C)[C@H](O)[C@H](C)[C@H]2OC(=O)/C(OC)=C/C(C)=C/[C@@H](C)[C@@H](O)[C@@H](C)[C@@H](O)[C@H](C)C/C(C)=C/C=C/[C@@H]2OC)CC(OC2CC(O)C(OC(N)=O)C(C)O2)[C@@H]1C` (some centres undefined), the TGI in experiment [1] was 10.4 µM; in experiment [3], 18.8 µM; in experiment [5], 0.305 µM; in experiment [6], below 0.01 µM; in experiment [7], 14.2 µM; in experiment [8], 4.8 µM. The compound also had a TGI in experiment [9] of 15.1 µM.
In the case of `CCOC(=O)c1sc2c(c1OC(=O)c1ccccc1)c(=O)n(-c1ccccc1)c(=S)n2-c1ccccc1`, the TGI is 29.4 µM in experiment [1]; above 100 µM in experiment [2]; above 100 µM in [3]; above 100 µM in [4]; 54.5 µM in experiment [5]; above 100 µM in experiment [6]. The TGI in experiment [7], in experiment [8] and in [9] was above 100 µM each time.
Consider `COc1ccc(OC)c2cc(Cc3ccc(N(C)C)cc3)c(=O)c(Cc3ccc(N(C)C)cc3)cc12`, for which the TGI in experiment [1], in experiment [2], in [3], in [5], in experiment [6] and in experiment [7] was above 100 µM each time. The TGI in experiment [8] and in experiment [9] was above 100 µM throughout.
For the compound `O=[As](O)(O)c1cc(N=Nc2ccc(-c3ccc(N=Nc4cc([As](=O)(O)O)c(O)cc4O)cc3)cc2)c(O)cc1O`, the TGI in experiment [1] was above 100 µM; in [2], above 80 µM; in experiment [4] it was above 67.6 µM; in experiment [5], above 100 µM; in [6], above 100 µM; in experiment [7], above 100 µM. Further, the TGI in [10] and in experiment [8] was above 100 µM each time.
As for `CN1CC(c2ccccc2)N(CCCCN2CC(c3ccccc3)N(C)CC2c2ccccc2)CC1c1ccccc1` (centres undefined), the TGI in experiment [1] is above 100 µM; in experiment [2], above 100 µM; in experiment [3], above 100 µM; in experiment [4] it was above 100 µM; in experiment [5], 81.8 µM; in [6], above 100 µM. The TGI in experiment [7], in experiment [10] and in experiment [8] was above 100 µM throughout.
With `COC(=O)C(COC(=O)/C=C/c1ccc(OC(C)=O)c(OC(C)=O)c1)OC(=O)/C=C/c1ccc(OC(C)=O)c(OC(C)=O)c1` (centres undefined), the TGI turned out to be 24 µM in [1]; 50.6 µM in experiment [2]; 24.7 µM in experiment [3]; 45.6 µM in experiment [5]; 7.2 µM in [6]; 30.9 µM in experiment [7]. The TGI in experiment [10] came out at 11.1 µM; in experiment [8], 23.5 µM.
Turning to `COc1c/c(=C2/C=c3ccccc3=N2)[nH]/c1=C/c1[nH]c(C)cc1C`, the GI50 in experiment [2] is 0.0313 µM; in [3], 0.15 µM; in experiment [4], 0.05 µM; in experiment [5], 0.277 µM; in experiment [6] it was 0.0293 µM. The TGI was above 100 µM in experiment [2]; above 100 µM in experiment [3]; 2.77 µM in experiment [4]; 1.62 µM in experiment [5]; 2.95 µM in experiment [6].
As to `OC1OC(c2ccco2)C(F)(F)C(F)(F)C1(F)F` (centres undefined), the TGI in experiment [1], in [2], in experiment [3], in [4], in [5] and in [7] was above 100 µM each time. Moreover, the TGI in experiment [8] and in experiment [9] was above 100 µM throughout.
